{"source": "patent US20250382588A1", "about": "“CHIMERIC AAV AND USES THEREOF” (priority 2023, published 2025)", "key": {"[1]": {"assay": "Rotation behavior after nigral EYFP control AAV and CNO", "format": "in vivo, mice", "settings": "for rotation behavior (FIG. 6C): AAV8R12-G88P3-EYFP; for rotation behavior (FIG. 6C) / rotation behavior (FIG. 7C): n=5; for rotation behavior (FIG. 7C): AAV8R12-G88P7-EYFP", "experimental": "Mice were anesthetized with sodium pentobarbital (Nembutal; 80 mg/kg, i.p.), and then placed into a stereotaxic device (KOPF). Eye cream was applied on both corneas to avoid dehydration. The skull above the targeted areas was thinned with a dental drill and carefully removed. Injections were conducted with a 10 μL syringe connected to a 33-Gauge needle (Neuros; Hamilton), using a microsyringe pump (Legato 130, KD Scientific). A total volume of 200 nL virus was injected into the SNr at a speed of 20 nL/min. The coordinates for the SNr were 3.4 mm posterior, 1.3 mm lateral, 4.8 mm ventral to the bregma.\nMice that were used in the behavioral experiments were then implanted with guide cannulas (KOPF) unilaterally aiming at the dorsomedial striatum (0.5 mm anterior, 1.5 mm lateral, 3.5 mm ventral to the bregma). The cannulas were fixed to the skull with dental cement. Stainless steel obturators were inserted into the guide cannulas and were replaced every other day to maintain the patency until infusions were made. Mice were allowed to recover from the surgery for at least 3 weeks before further studies.\nMice were individually handled for 10-20 seconds per day for at least 5 days to habituate them to the experimenter. The open field test was conducted in a test apparatus (50 cm×50 cm×50 cm) with an HD digital camera (Sony) positioned above the arena. On day one, mice were habituated to the apparatus for 10 minutes. On day 2, mice were administrated saline (0.1 mL i.p. or 200 nL intracranially [i.c.] through the guide cannulas). On day 3, mice were administrated with Clozapine-N-oxide (CNO, Hello Bio, HB1807; 0.3 mg/kg i.p. or 200 nL at 100 μM i.e.). All behavioral tests were conducted 30 minutes after injection. During the test, mice were allowed to freely explore the apparatus for 10 minutes. The behavioral data were analyzed with ANY-maze software (Stoelting Co.)."}, "[2]": {"tested_on": "retrogradely labeled D1-MSNs", "assay": "Striatal slice whole-cell recordings of retrogradely labeled MSNs", "format": "cell-based, mice", "settings": "AAV8R12-G88P3-HA-hM3Dq-2A-EYFP; CNO 10 μM", "excerpt": "Mice from different groups were anesthetized with […] isoflurane, and then decapitated. The brain was quickly extracted and placed in ice-cold N-methyl-D-glucamine (NMDG) cutting solution containing (in mM): 92 NMDG, 2.5 KCl, 25 NaHCO3, 1.25 NaH2PO4, 4.5 D-Glucose, 20 HEPES, 5 L-ascorbic acid, 3 Na-pyruvate, 2 Thiourea, 10 MgSO4, 0.5 CaCl2). The pH was adjusted to 7.2±0.1 using HCl and the osmolarity was adjusted to 305±5 mosmol/L using NMDG. The solution was bubbled with 95% O2/5% CO2 prior to use. Coronal striatum slices were cut in 250-[…] thickness with a vibratome slicer (Leica, VT1200 S), and then incubated in artificial cerebrospinal fluid (aCSF) saturated with 95% O2/5% CO2 for at least 45 min at 37° C. before recording. The aCSF contains (in mM) 125 NaCl, 1.25 KCl, 25 NaHCO3, 1.25 KH2PO4, 25 D-Glucose, 2 CaCl2) and 1 MgCl2, supplemented with 2 mM Na-pyruvate, 3 mM Myo-inositol and 0.4 mM L-ascorbic acid.\nThe acute striatum slice was transferred to the recording chamber with a constant perfusion of oxygenized aCSF at the rate of 3 ml/min. Neurons were visualized using an upright microscope (Olympus, BX-51) with a 40× water immersion objective at room temperature (˜25° C.). […] Neurons were quickly visualized under fluorescence microscope and then patch clamp were achieved under infrared light illumination and CCD camera. […]"}}, "data": [{"smiles": "C[N+]1([O-])CCN(C2=Nc3cc(Cl)ccc3Nc3ccccc32)CC1", "note": "[CNO, clozapine N-oxide]", "values": [{"measurement": "rotation behavior (FIG. 6C)", "setting": "[1]; CNO i.p.", "value": "44.72±10.89"}, {"measurement": "rotation behavior (FIG. 6C)", "setting": "[1]; CNO intracranial", "value": "61.39±5.774"}, {"measurement": "rotation behavior (FIG. 7C)", "setting": "[1]; CNO i.p.", "value": "46.88±7.497"}, {"measurement": "rotation behavior (FIG. 7C)", "setting": "[1]; CNO intracranial", "value": "34.55±7.536"}, {"measurement": "rotational behaviors, in words", "setting": "[1]; animals that received the EYFP control vector named at the place", "value": "didn't induce rotational behaviors"}, {"measurement": "excitability of transduced MSNs", "setting": "[2]", "value": "augmentation of excitability"}]}]}
